Where “and” joins values, the source holds several entries; their conditions need not be identical. Equal entries are not always repeated. Where two headings read alike, the source gives them in different places.
Format: in vivo, beagle dogs
Experimental: Once adequately conditioned to the restraint device and face-masks, the animals are individually exposed to the test article aerosols. Animals receive a single face-mask inhalation exposure in a ramp study design to test article aerosols for up to 60 min. Animal observations during and post exposure determine the tolerance of inhaled BisEDT aerosols.
Blood Collections and Bioanalytical Analysis: Blood are collected for pharmacokinetic (PK) analysis prior to exposure, then at 4 hr (±5 min) post exposure, and again on Day 1, Day 2, Day 7 (pre- and 4 hr (±5 min)-post exposure), Day 8, Day 9, Day 10, Day 11, Day 12, Day 13, and Day 14. A total of 0.25 mL is collected at each timepoint. No PK blood is collected from the vehicle control (Group 1) animals; only animals exposed to BisEDT have blood collected for PK analysis. Collected samples are flash frozen without processing for shipment to Medpace for bioanalytical analysis. Additional blood is collected from all animals in all groups for hematology (1 mL) and clinical chemistry (1 mL) at baseline, Day 7 (pre-exposure), and again at euthanasia. Blood (2-2 mL) is collected from all animals at necropsy for coagulation analysis (d-Dimer, fibrinogen, PT, and PTT).
For clinical chemistry analyses, whole blood (1 mL) is placed into serum separator or clot tube and […] by centrifugation at a minimum of 1300 g at 2 to 8° C. for 10 (±1) min. Plasma samples are stored at −70 to −90° C. until analysis.
Clinical chemistry samples are analyzed on a Hitachi Modular Analytics Clinical Chemistry System (Roche Diagnostics, Indianapolis, Ind.).

## C1C[S][Bi]([S]CC[S][Bi]2[S]CC[S]2)[S]1 [BisEDT, Bismuth-1,2-ethanedithiol]
Dog 4002 Female
  GGT: 3 IU/L
  GLOB: 2.1 g/dL and 2.0 g/dL
  GLUC: 106 mg/dL and 79 mg/dL
  K: 5.3 mmo/L
  Na: 153 mmo/L and 149 mmo/L
  TBIL: 0.15 mg/dL
  TP: 5.6 g/dL and 5.5 g/dL
  TRIG: 34 mg/dL and 41 mg/dL
Dog 4003 Male
  AGR: 1.8 and 1.6
  ALB: 3.5 g/dL and 3.3 g/dL
  ALPK: 146 IU/L and 129 IU/L
  ALT: 40 IU/L and 23 IU/L
  AST: 30 IU/L and 33 IU/L
  BUN: 16 mg/dL and 15 mg/dL
  CA2: 11.2 mg/dL and 11.0 mg/dL
  CHOL: 152 mg/dL and 176 mg/dL
  CREA: 0.6 mg/dL and 0.7 mg/dL
  Cl: 117 mmo/L and 112 mmo/L
  GGT: 3 IU/L
  GLOB: 1.9 g/dL and 2.1 g/dL
  GLUC: 109 mg/dL and 81 mg/dL
  K: 4.9 mmo/L
  Na: 149 mmo/L and 147 mmo/L
  TBIL: 0.15 mg/dL
  TP: 5.4 g/dL
  TRIG: 55 mg/dL and 53 mg/dL
Dog 4004 Female
  AGR: 2.0 and 1.7 and 1.9
  ALB: 3.4 g/dL and 3.3 g/dL
  ALPK: 103 IU/L and 93 IU/L and 95 IU/L
  ALT: 28 IU/L and 25 IU/L and 24 IU/L
  AST: 33 IU/L and 38 IU/L and 31 IU/L
  BUN: 13 mg/dL
  CA2: 10.8 mg/dL and 10.6 mg/dL
  CHOL: 125 mg/dL and 124 mg/dL and 112 mg/dL
  CREA: 0.6 mg/dL
  Cl: 119 mmo/L and 115 mmo/L and 114 mmo/L
  GGT: 3 IU/L
  GLOB: 1.7 g/dL and 1.9 g/dL
  GLUC: 102 mg/dL and 70 mg/dL and 96 mg/dL
  K: 4.6 mmo/L and 5.1 mmo/L and 4.3 mmo/L
  Na: 153 mmo/L and 148 mmo/L and 146 mmo/L
  TBIL: 0.15 mg/dL
  TP: 5.1 g/dL and 5.2 g/dL and 5.0 g/dL
  TRIG: 53 mg/dL and 49 mg/dL and 44 mg/dL
dogs, Grp 2 Avg
  AGR: 1.8 and 2.2 and 2.1
  ALB: 3.3 g/dL and 3.5 g/dL and 3.6 g/dL
  ALPK: 186 IU/L and 126 IU/L and 116 IU/L
  ALT: 20 IU/L and 26 IU/L and 25 IU/L
  AST: 42 IU/L and 39 IU/L and 37 IU/L
  BUN: 13 mg/dL and 15 mg/dL
  CA2: 10.9 mg/dL and 10.8 mg/dL
  CHOL: 153 mg/dL and 145 mg/dL and 133 mg/dL
  CREA: 0.7 mg/dL and 0.6 mg/dL
  Cl: 110 mmo/L and 114 mmo/L and 111 mmo/L
  GGT: 3 IU/L
  GLOB: 1.8 g/dL and 1.7 g/dL
  GLUC: 93 mg/dL and 98 mg/dL and 96 mg/dL
  K: 4.8 mmo/L and 5.1 mmo/L and 4.7 mmo/L
  Na: 149 mmo/L and 147 mmo/L and 148 mmo/L
  TBIL: 0.15 mg/dL
  TP: 5.1 g/dL and 5.2 g/dL and 5.4 g/dL
  TRIG: 52 mg/dL and 60 mg/dL and 47 mg/dL
dogs, Grp 3 Avg
  AGR: 2.2 and 1.9 and 2.4
  ALB: 3.4 g/dL and 3.5 g/dL and 3.6 g/dL
  ALPK: 153 IU/L and 113 IU/L and 149 IU/L
  ALT: 27 IU/L and 22 IU/L and 21 IU/L
  AST: 30 IU/L and 32 IU/L
  CA2: 11.0 mg/dL and 10.7 mg/dL and 10.2 mg/dL
  CHOL: 113 mg/dL and 143 mg/dL and 126 mg/dL
  CREA: 0.6 mg/dL and 1.0 mg/dL
  Cl: 112 mmo/L and 110 mmo/L
  GGT: 3 IU/L
  GLOB: 1.6 g/dL and 1.9 g/dL and 1.5 g/dL
  GLUC: 106 mg/dL and 89 mg/dL and 58 mg/dL
  K: 5.1 mmo/L and 5.2 mmo/L and 5.9 mmo/L
  Na: 148 mmo/L and 146 mmo/L and 149 mmo/L
  TBIL: 0.15 mg/dL
  TP: 4.9 g/dL and 5.3 g/dL and 5.1 g/dL
  TRIG: 30 mg/dL and 39 mg/dL and 55 mg/dL
dogs, Grp 4 Avg
  AGR: 2.2 and 1.8 and 1.9
  ALB: 3.5 g/dL and 3.4 g/dL and 3.3 g/dL
  ALPK: 103 IU/L and 104 IU/L and 107 IU/L
  ALT: 28 IU/L and 26 IU/L
  AST: 33 IU/L and 39 IU/L
  BUN: 12 mg/dL and 13 mg/dL
  CA2: 10.8 mg/dL and 10.7 mg/dL and 10.5 mg/dL
  CHOL: 139 mg/dL and 136 mg/dL and 112 mg/dL
  CREA: 0.7 mg/dL and 0.6 mg/dL
  Cl: 120 mmo/L and 116 mmo/L and 114 mmo/L
  GGT: 3 IU/L
  GLOB: 1.7 g/dL and 1.9 g/dL
  GLUC: 102 mg/dL and 76 mg/dL and 91 mg/dL
  K: 4.7 mmo/L and 5.0 mmo/L and 4.5 mmo/L
  Na: 153 mmo/L and 148 mmo/L and 146 mmo/L
  TBIL: 0.15 mg/dL
  TP: 5.2 g/dL and 5.3 g/dL and 5.0 g/dL
  TRIG: 51 mg/dL and 48 mg/dL and 42 mg/dL

— US20230124862A1, “BISMUTH THIOL COMPOUNDS AND COMPOSITIONS AND METHODS OF TREATING MICROBIAL CO-INFECTIONS” (Microbion Corporation, priority 2020, published 2023)
